Data reported in patent publication US20250034150A1, “BTK INHIBITORS” (BIOGEN MA INC., priority 2021, published 2025).
Counter-ions that a name gives are not always drawn. Like-named read-outs stand apart in the source and are kept apart here.

What was measured:
[1] = system: CD69 expression on CD19+ B cells in human whole blood; experiment: In Vitro whole blood CD69 Assay; type: cell-based; details: B-cell, read-out: In Vitro HWB CD69 Assay IC50 Score
How it was run: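 Heparinized healthy-donor human whole blood was preincubated with compound (0.1% DMSO) for 30 min at 37 °C. Stimulation used 0.1 µg/mL anti-IgD-dextran or 20 µg/mL rabbit F(ab′)2 anti-IgD for 18–22 h at 37 °C. CD69 on gated CD19+ B cells was then measured by flow cytometry.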

BTK = molecular target: T1, BTK (Homo sapiens, UniProt Q06187); experiment: In Vitro BTK Kinase Assay: Btk-PolyGAT-LS Assay; type: biochemical; details: active BTK enzyme 0.25 nM, polyGAT 100 nM, 30 minutes, TRF readout; read-out: In Vitro BTK Kinase Assay IC50 Score
T1 construct: purchased Upstate 14-552
How it was run: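 Active BTK at 0.25 nM phosphorylated 100 nM fluorescein-polyGAT peptide at 10 μM ATP for 30 minutes. Buffer was Tris pH 7.5 with MgCl2, DTT, Triton X-100 and casein, and reactions were stopped with EDTA. Phospho-peptide was detected by Tb-PY20 antibody TR-FRET, and IC50 came from a four-parameter fit normalized to DMSO and EDTA controls.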

[2] = human heparinized whole blood, anti-human IgD stimulation overnight, CD19+ B cells, flow cytometry

T1 sequence (Q06187 whole entry): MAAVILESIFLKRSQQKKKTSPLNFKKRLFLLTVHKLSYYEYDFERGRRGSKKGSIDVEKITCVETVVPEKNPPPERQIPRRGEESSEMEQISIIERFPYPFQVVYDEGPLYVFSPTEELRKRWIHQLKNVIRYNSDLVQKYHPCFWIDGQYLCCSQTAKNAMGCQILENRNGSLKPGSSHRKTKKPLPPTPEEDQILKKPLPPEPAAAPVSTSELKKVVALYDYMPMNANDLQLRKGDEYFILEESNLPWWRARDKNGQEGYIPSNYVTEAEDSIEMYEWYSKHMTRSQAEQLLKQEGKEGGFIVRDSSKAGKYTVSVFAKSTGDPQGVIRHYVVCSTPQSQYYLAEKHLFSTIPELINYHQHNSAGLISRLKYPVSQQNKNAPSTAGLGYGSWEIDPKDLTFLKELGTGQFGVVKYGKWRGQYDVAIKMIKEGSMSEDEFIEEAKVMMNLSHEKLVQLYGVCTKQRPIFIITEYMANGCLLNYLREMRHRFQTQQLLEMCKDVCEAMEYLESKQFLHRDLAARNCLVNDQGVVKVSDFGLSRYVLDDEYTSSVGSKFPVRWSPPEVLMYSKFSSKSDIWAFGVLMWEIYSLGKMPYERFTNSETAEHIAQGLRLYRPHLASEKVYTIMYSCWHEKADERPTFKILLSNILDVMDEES

| SMILES | IC50 [1, 2] | IC50 (BTK) | IC50 ([1]; Homo sapiens) |
| --- | --- | --- | --- |
| Cc1cc(-c2nc(-c3cnn(C)c3)cn3nccc23)ccc1CNC(=O)c1cn(C(C)(C)C)nn1 [Example 16, 1-(tert-butyl)-N-(2-methyl-4-(6-(1-methyl-1H-pyrazol-4-yl)pyrazolo[1,5-a]pyrazin-4-yl)benzyl)-1H-1,2,3-triazole-4-carboxamide] | < 1 µM | < 0.001 µM |  |
| Cn1cc(-c2cn3nccc3c(-c3ccc(CNC(=O)c4noc(C(C)(C)C)n4)c(C(F)F)c3)n2)cn1 [Example 86, 5-(tert-butyl)-N-(2-(difluoromethyl)-4-(6-(1-methyl-1H-pyrazol-4-yl)pyrazolo[1,5-a]pyrazin-4-yl)benzyl)-1,2,4-oxadiazole-3-carboxamide] | < 1 µM | < 0.001 µM |  |
| Cn1cc(-c2cn3nccc3c(N3CCC(CNC(=O)c4noc(C(C)(C)C)n4)CC3)n2)cn1 [Example 136, 5-(tert-butyl)-N-((1-(6-(1-methyl-1H-pyrazol-4-yl)pyrazolo[1,5-a]pyrazin-4-yl)piperidin-4-yl)methyl)-1,2,4-oxadiazole-3-carboxamide] |  | 0.001 to 0.01 µM | < 1 µM |
| Cc1cc(-c2nc(-c3cnn(C)c3)cn3nccc23)ccc1CNC(=O)c1noc(C(C)(C)C)n1 [Example 80, 5-(tert-butyl)-N-(2-methyl-4-(6-(1-methyl-1H-pyrazol-4-yl)pyrazolo[1,5-a]pyrazin-4-yl)benzyl)-1,2,4-oxadiazole-3-carboxamide] | < 1 µM | < 0.001 µM |  |
| Cn1cc(-c2cc(-c3ccc(CNC(=O)c4noc(C(C)(C)C)n4)c(F)c3)c3ccnn3c2)cn1 [Example 68, 5-(tert-butyl)-N-(2-fluoro-4-(6-(1-methyl-1H-pyrazol-4-yl)pyrazolo[1,5-a]pyridin-4-yl)benzyl)-1,2,4-oxadiazole-3-carboxamide] |  | < 0.001 µM | < 1 µM |
| CC(C)(C)c1noc(C(=O)NCc2ccc(-c3nc(N4CCOCC4)cn4nccc34)cc2)n1 [Example 24, 3-(tert-butyl)-N-(4-(6-morpholinopyrazolo[1,5-a]pyrazin-4-yl)benzyl)-1,2,4-oxadiazole-5-carboxamide] | 1 to 10 µM | 0.01 to 1 µM |  |
| Cn1cc(-c2cn3nccc3c(-c3ccc(CNC(=O)c4ccn(C(C)(C)C)n4)cc3)n2)cn1 [Example 1, 1-(tert-butyl)-N-(4-(6-(1-methyl-1H-pyrazol-4-yl)pyrazolo[1,5-a]pyrazin-4-yl)benzyl)-1H-pyrazole-3-carboxamide] | 1 to 10 µM | 0.01 to 1 µM |  |
| Cc1cc(-c2nc(-c3cnn(C)c3)cn3nccc23)ccc1CNC(=O)c1ccn(C(C)(C)C)n1 [Example 18, 1-(tert-butyl)-N-(2-methyl-4-(6-(1-methyl-1H-pyrazol-4-yl)pyrazolo[1,5-a]pyrazin-4-yl)benzyl)-1H-pyrazole-3-carboxamide] | < 1 µM | 0.001 to 0.01 µM |  |
| CC(C)(C)c1nc(C(=O)NCc2ccc(-c3nccn4nccc34)cc2Cl)no1 [Example 82, 5-(tert-butyl)-N-(2-chloro-4-(pyrazolo[1,5-a]pyrazin-4-yl)benzyl)-1,2,4-oxadiazole-3-carboxamide] | 1 to 10 µM | 0.001 to 0.01 µM |  |
| Cn1cc(-c2cn3nccc3c(-c3ccc4c(c3)CN(C3COC3)CC[C@H]4NC(=O)c3cn(C(C)(C)C)nn3)n2)cn1 [Example 39, 1-tert-butyl-N-[(5R)-8-[6-(1-methylpyrazol-4-yl)pyrazolo[1,5-a]pyrazin-4-yl]-2-(oxetan-3-yl)-1,3,4,5-tetrahydro-2-benzazepin-5-yl]triazole-4-carboxamide] | < 1 µM | < 0.001 µM |  |
| Cn1cc(-c2cn3nccc3c(-c3ccc(CNC(=O)c4coc(C(C)(C)C)n4)c(F)c3)n2)cn1 [Example 12, 2-(tert-butyl)-N-(2-fluoro-4-(6-(1-methyl-1H-pyrazol-4-yl)pyrazolo[1,5-a]pyrazin-4-yl)benzyl)oxazole-4-carboxamide] | < 1 µM | < 0.001 µM |  |
| Cn1cc(-c2cn3nccc3c(-c3ccc(CNC(=O)c4cn(C(C)(C)C)nn4)c(F)c3)n2)cn1 [Example 9, 1-(tert-butyl)-N-(2-fluoro-4-(6-(1-methyl-1H-pyrazol-4-yl)pyrazolo[1,5-a]pyrazin-4-yl)benzyl)-1H-1,2,3-triazole-4-carboxamide] | < 1 µM | < 0.001 µM |  |
| Cn1cc(-c2cn3ncnc3c(N3CCC(CNC(=O)c4noc(C(C)(C)C)n4)CC3)n2)cn1 [Example 73, 5-(tert-butyl)-N-((1-(6-(1-methyl-1H-pyrazol-4-yl)-[1,2,4]triazolo[1,5-a]pyrazin-8-yl)piperidin-4-yl)methyl)-1,2,4-oxadiazole-3-carboxamide] | 1 to 10 µM | 0.001 to 0.01 µM |  |
| CC(C)CN1CCN(Cc2ccc(-c3nc(-c4cnn(C)c4)cn4nccc34)cc2F)C(=O)C1 [Example 34, 1-(2-fluoro-4-(6-(1-methyl-1H-pyrazol-4-yl)pyrazolo[1,5-a]pyrazin-4-yl)benzyl)-4-isobutylpiperazin-2-one] | 1 to 10 µM | 0.001 to 0.01 µM |  |
| Cc1cc(-c2cc(-c3cnn(C)c3)cn3nccc23)ccc1CNC(=O)c1cn(C(C)(C)C)nn1 [Example 66, 1-(tert-butyl)-N-(2-methyl-4-(6-(1-methyl-1H-pyrazol-4-yl)pyrazolo[1,5-a]pyridin-4-yl)benzyl)-1H-1,2,3-triazole-4-carboxamide] | < 1 µM | < 0.001 µM |  |

Now from value to compound, other results behind:

| IC50 [1, 2] | IC50 (BTK) | SMILES | IC50 ([1]; Homo sapiens) |
| --- | --- | --- | --- |
| 1 to 10 µM | 0.01 to 1 µM | CN1CCN(c2cn3nccc3c(-c3ccc(CNC(=O)c4cn(C(C)(C)C)nn4)c(F)c3)n2)CC1 [Example 128, 1-(tert-butyl)-N-(2-fluoro-4-(6-(4-methylpiperazin-1-yl)pyrazolo[1,5-a]pyrazin-4-yl)benzyl)-1H-1,2,3-triazole-4-carboxamide trifluoroacetate] |  |
| 1 to 10 µM | 0.001 to 0.01 µM | Cn1cc(-c2cn3nccc3c(N3CCC(CNC(=O)c4noc(C5(C)CC5)n4)CC3)n2)cn1 [Example 137, N-((1-(6-(1-methyl-1H-pyrazol-4-yl)pyrazolo[1,5-a]pyrazin-4-yl)piperidin-4-yl)methyl)-5-(1-methylcyclopropyl)-1,2,4-oxadiazole-3-carboxamide] |  |
| 1 to 10 µM | 0.001 to 0.01 µM | Cn1cc(-c2cn3nccc3c(-c3cc(F)c(CNC(=O)c4coc(C(C)(C)C)n4)cc3F)n2)cn1 [Example 95, 2-(tert-butyl)-N-(2,5-difluoro-4-(6-(1-methyl-1H-pyrazol-4-yl)pyrazolo[1,5-a]pyrazin-4-yl)benzyl)oxazole-4-carboxamide] |  |
| 1 to 10 µM | 0.001 to 0.01 µM | Cn1cc(-c2cn3nccc3c(N3CCC(F)(CNC(=O)c4noc(C5(C)CC5)n4)CC3)n2)cn1 [Example 161, N-((4-fluoro-1-(6-(1-methyl-1H-pyrazol-4-yl)pyrazolo[1,5-a]pyrazin-4-yl)piperidin-4-yl)methyl)-5-(1-methylcyclopropyl)-1,2,4-oxadiazole-3-carboxamide trifluoroacetate] |  |
| 1 to 10 µM | 0.01 to 1 µM | Cn1cc(-c2cn3nccc3c(N3CC[C@H](CNC(=O)c4noc(C5(C)CC5)n4)[C@H](F)C3)n2)cn1 [Example 154, N-(((3S,4R)-3-fluoro-1-(6-(1-methyl-1H-pyrazol-4-yl)pyrazolo[1,5-a]pyrazin-4-yl)piperidin-4-yl)methyl)-5-(1-methylcyclopropyl)-1,2,4-oxadiazole-3-carboxamide] |  |
| < 1 µM | < 0.001 µM | Cn1cc(-c2cn3nccc3c(-c3ccc(CNC(=O)c4nnn(C(C)(C)C)n4)c(F)c3F)n2)cn1 [Example 87, 2-(tert-butyl)-N-(2,3-difluoro-4-(6-(1-methyl-1H-pyrazol-4-yl)pyrazolo[1,5-a]pyrazin-4-yl)benzyl)-2H-tetrazole-5-carboxamide] |  |
| < 1 µM | < 0.001 µM | Cn1cc(-c2cn3nccc3c(-c3ccc(CNC(=O)c4cnn(C(C)(C)C)n4)c(F)c3F)n2)cn1 [Example 92, 2-(tert-butyl)-N-(2,3-difluoro-4-(6-(1-methyl-1H-pyrazol-4-yl)pyrazolo[1,5-a]pyrazin-4-yl)benzyl)-2H-1,2,3-triazole-4-carboxamide] |  |
| < 1 µM | < 0.001 µM | Cn1cc(-c2cn3nccc3c(-c3ccc(CNC(=O)c4nnc(C(C)(C)C)o4)c(C(F)F)c3)n2)cn1 [Example 102, 5-(tert-butyl)-N-(2-(difluoromethyl)-4-(6-(1-methyl-1H-pyrazol-4-yl)pyrazolo[1,5-a]pyrazin-4-yl)benzyl)-1,3,4-oxadiazole-2-carboxamide] |  |
| 1 to 10 µM | 0.001 to 0.01 µM | Cn1cc(-c2cn3nccc3c(-c3cc(F)c(CNC(=O)c4cn(C(C)(C)C)nn4)cc3F)n2)cn1 [Example 98, 1-(tert-butyl)-N-(2,5-difluoro-4-(6-(1-methyl-1H-pyrazol-4-yl)pyrazolo[1,5-a]pyrazin-4-yl)benzyl)-1H-1,2,3-triazole-4-carboxamide] |  |
| < 1 µM | 0.001 to 0.01 µM | Cn1cc(-c2cn3nccc3c(N3CC[C@@H](CNC(=O)c4noc(C(C)(C)C)n4)[C@@H](F)C3)n2)cn1 (single isomer, unassigned) [Example 156] |  |
| 1 to 10 µM | 0.001 to 0.01 µM | Cn1cc(-c2cn3nccc3c(N3CCC(CNC(=O)c4cn(C(C)(C)C)nn4)CC3)n2)cn1 [Example 138, 1-(tert-butyl)-N-((1-(6-(1-methyl-1H-pyrazol-4-yl)pyrazolo[1,5-a]pyrazin-4-yl)piperidin-4-yl)methyl)-1H-1,2,3-triazole-4-carboxamide] |  |
| < 1 µM | < 0.001 µM | Cn1cc(-c2cn3nccc3c(N3CC[C@@H](CNC(=O)c4noc(C(C)(C)C)n4)C(F)(F)C3)n2)cn1 (single isomer, unassigned) [Example 158] |  |
